Results published in PubChem BioAssay (NCI).
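A five-concentration, 48-hour dose response in 96-well plates underlies each endpoint, interpolated linearly between surrounding concentrations. Abbreviation: GI50, concentration required for 50% inhibition of growth. TGI: total growth inhibition.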

Tests used:
Experiment in all cases: NCI tumour cell line growth inhibition, 48 h
[1] = test system: 786-0 renal
[2] = test system: A498 renal
[3] = test system: A549 NSCLC
[4] = test system: ACHN renal
[5] = test system: BT-549 breast
[6] = test system: CAKI-1 renal
[7] = test system: CCRF-CEM leukemia
[8] = test system: COLO 205 colon
[9] = test system: DU-145 prostate
[10] = test system: EKVX NSCLC
[11] = test system: HCC-2998 colon
[12] = test system: HCT-116 colon
[13] = test system: HCT-15 colon
[14] = test system: HL-60(TB) leukemia
[15] = test system: HOP-62 NSCLC
[16] = test system: HOP-92 NSCLC
[17] = test system: HS 578T breast
[18] = test system: HT29 colon
[19] = test system: IGROV1 ovarian
[20] = test system: K-562 leukemia
[21] = test system: KM12 colon
[22] = test system: LOX IMVI melanoma
[23] = test system: M14 melanoma
[24] = test system: MALME-3M melanoma
[25] = test system: MCF7 breast
[26] = test system: MDA-MB-231 breast
[27] = test system: MDA-MB-435
[28] = test system: MOLT-4 leukemia
[29] = test system: NCI-H226 lung
[30] = test system: NCI-H23 lung
[31] = test system: NCI-H460 lung
[32] = test system: NCI/ADR-RES ovarian
[33] = test system: OVCAR-3 ovarian
[34] = test system: OVCAR-4 ovarian
[35] = test system: OVCAR-5 ovarian
[36] = test system: OVCAR-8 ovarian
[37] = test system: PC-3 prostate
[38] = test system: RPMI-8226 leukemia
[39] = test system: RXF 393 renal
[40] = test system: SF-268 CNS
[41] = test system: SF-295 CNS
[42] = test system: SF-539 CNS
[43] = test system: SK-MEL-2 melanoma
[44] = test system: SK-MEL-28 melanoma
[45] = test system: SK-MEL-5 melanoma
[46] = test system: SK-OV-3 ovarian
[47] = test system: SN12C renal
[48] = test system: SNB-19 CNS
[49] = test system: SNB-75 CNS
[50] = test system: SR leukemia
[51] = test system: SW-620 colon
[52] = test system: T-47D breast
[53] = test system: TK-10 renal
[54] = test system: U251 CNS
[55] = test system: UACC-257 melanoma
[56] = test system: UACC-62 melanoma
[57] = test system: UO-31 renal

**Q.** Which results are given for `COc1ccc(-c2cnoc2-c2ccc(OC)cc2O)cc1`?
**A.** GI50 [1]: 5.31 µM; TGI [1]: 37.5 µM; GI50 [2]: 1780 nM; TGI [2]: 8.49 µM; GI50 [3]: 4.08 µM; TGI [3]: 69.3 µM; GI50 [4]: 9.17 µM; TGI [4]: > 100 µM; GI50 [5]: 9.73 µM; TGI [5]: 35.3 µM; GI50 [6]: 4.31 µM; TGI [6]: > 100 µM; GI50 [7]: 3.09 µM; TGI [7]: > 100 µM; GI50 [8]: 9.5 µM; TGI [8]: 30.4 µM; GI50 [9]: 3.85 µM; TGI [9]: 15.8 µM; GI50 [10]: 15.5 µM; TGI [10]: > 100 µM; GI50 [11]: 5.27 µM; TGI [11]: 29.8 µM; GI50 [12]: 2820 nM; TGI [12]: 16.5 µM; GI50 [13]: 2560 nM; TGI [13]: > 100 µM; GI50 [14]: 2930 nM; TGI [14]: 16.8 µM; GI50 [15]: 4.6 µM; TGI [15]: 35.7 µM; GI50 [16]: 2420 nM; TGI [16]: 27.4 µM; GI50 [17]: 1900 nM; TGI [17]: 6.69 µM; GI50 [18]: 3.54 µM; TGI [18]: 15.3 µM; GI50 [19]: 7.54 µM; TGI [19]: 92.1 µM; GI50 [20]: 534 nM; TGI [20]: > 100 µM; GI50 [21]: 2660 nM; TGI [21]: 15 µM; GI50 [22]: 6.9 µM; TGI [22]: 26.2 µM; GI50 [23]: 2690 nM; TGI [23]: 15 µM; GI50 [24]: 14.1 µM; TGI [24]: 49.5 µM; GI50 [25]: 2850 nM; TGI [25]: 85.2 µM; GI50 [26]: 3.32 µM; TGI [26]: 27.6 µM; GI50 [27]: 314 nM; TGI [27]: 1.6 µM; GI50 [28]: 3.36 µM; TGI [28]: 22.9 µM; GI50 [29]: 12.8 µM; TGI [29]: 55.6 µM; GI50 [30]: 4.31 µM; TGI [30]: 50.3 µM; GI50 [31]: 3.24 µM; TGI [31]: 12.4 µM; GI50 [32]: 1750 nM; TGI [32]: 19.1 µM; GI50 [33]: 2320 nM; TGI [33]: 5.76 µM; GI50 [34]: 10.5 µM; TGI [34]: > 100 µM; GI50 [35]: 13.5 µM; TGI [35]: > 100 µM; GI50 [36]: 4.49 µM; TGI [36]: 30.4 µM; GI50 [37]: 4.52 µM; TGI [37]: 54.3 µM; GI50 [38]: 4.98 µM; TGI [38]: 67.4 µM; GI50 [39]: 3.4 µM; TGI [39]: 11.1 µM; GI50 [40]: 6.32 µM; TGI [40]: 42.6 µM; GI50 [41]: 2990 nM; TGI [41]: 14.8 µM; GI50 [42]: 3.66 µM; TGI [42]: 16.6 µM; GI50 [43]: 3.33 µM; TGI [43]: 11.8 µM; GI50 [44]: 5.42 µM; TGI [44]: 60.5 µM; GI50 [45]: 3.52 µM; TGI [45]: 14.2 µM; GI50 [46]: 4.17 µM; TGI [46]: 24 µM; GI50 [47]: 5 µM; TGI [47]: 41.1 µM; GI50 [48]: 5.29 µM; TGI [48]: > 100 µM; GI50 [49]: 1720 nM; TGI [49]: 9.86 µM; GI50 [50]: 628 nM; TGI [50]: 13 µM; GI50 [51]: 2050 nM; TGI [51]: > 100 µM; GI50 [52]: 8.64 µM; TGI [52]: > 100 µM; GI50 [53]: 11.8 µM; TGI [53]: 47.5 µM; GI50 [54]: 3.58 µM; TGI [54]: 18.3 µM; GI50 [55]: 6.9 µM; TGI [55]: 41.6 µM; GI50 [56]: 2610 nM; TGI [56]: 20.2 µM; GI50 [57]: 11.6 µM; TGI [57]: 53.3 µM

**Q.** With `CN1CN(c2ccccc2)C2(CCN(Cc3nc4ccccc4s3)CC2)C1=O` as the compound, how does the TGI [1] read?
**A.** The TGI was 31.3 µM.

**Q.** And the TGI [2]?
**A.** Its TGI is 30.7 µM.

**Q.** What about the TGI [3] of the same compound?
**A.** Its TGI is 33.4 µM.

**Q.** What about the TGI [4] of the same compound?
**A.** The TGI was 39.8 µM.

**Q.** What about the TGI [5] of the same compound?
**A.** Its TGI is 30.3 µM.

**Q.** What about the TGI [6] of the same compound?
**A.** The TGI was 49.6 µM.

**Q.** What about the TGI [7] of the same compound?
**A.** Its TGI is 41.6 µM.

**Q.** What about the TGI [8] of the same compound?
**A.** The TGI was 32.1 µM.

**Q.** And the TGI [9]?
**A.** The TGI was 38.3 µM.

**Q.** What about the TGI [10] of the same compound?
**A.** Its TGI is 48.3 µM.

**Q.** What about the TGI [12] of the same compound?
**A.** Its TGI is 28.1 µM.

**Q.** And the TGI [13]?
**A.** The TGI was 35.1 µM.

**Q.** And the TGI [14]?
**A.** The TGI was 29.1 µM.

**Q.** What about the TGI [15] of the same compound?
**A.** The TGI was 30.7 µM.

**Q.** And the TGI [16]?
**A.** The TGI was 28.5 µM.

**Q.** And the TGI [17]?
**A.** Its TGI is 41.8 µM.

**Q.** And the TGI [18]?
**A.** Its TGI is 30.7 µM.

**Q.** What about the TGI [19] of the same compound?
**A.** Its TGI is 30.4 µM.

**Q.** What about the TGI [20] of the same compound?
**A.** Its TGI is 32.4 µM.

**Q.** And the TGI [22]?
**A.** The TGI was 34.9 µM.

**Q.** What about the TGI [23] of the same compound?
**A.** Its TGI is 26.3 µM.

**Q.** And the TGI [24]?
**A.** Its TGI is 31.8 µM.

**Q.** What about the TGI [25] of the same compound?
**A.** Its TGI is 29.5 µM.

**Q.** And the TGI [26]?
**A.** The TGI was 27.2 µM.

**Q.** What about the TGI [27] of the same compound?
**A.** The TGI was 32.3 µM.

**Q.** What about the TGI [28] of the same compound?
**A.** The TGI was 34.3 µM.

**Q.** And the TGI [29]?
**A.** Its TGI is 36.2 µM.

**Q.** What about the TGI [30] of the same compound?
**A.** The TGI was 34.2 µM.

**Q.** And the TGI [32]?
**A.** The TGI was 33.5 µM.

**Q.** And the TGI [33]?
**A.** The TGI was 32.4 µM.

**Q.** And the TGI [34]?
**A.** The TGI was 38 µM.

**Q.** What about the TGI [35] of the same compound?
**A.** The TGI was 34.1 µM.

**Q.** And the TGI [36]?
**A.** The TGI was 28.8 µM.

**Q.** And the TGI [37]?
**A.** Its TGI is 28.8 µM.

**Q.** What about the TGI [38] of the same compound?
**A.** Its TGI is 36.2 µM.

**Q.** What about the TGI [39] of the same compound?
**A.** The TGI was 29.9 µM.

**Q.** What about the TGI [40] of the same compound?
**A.** The TGI was 44.3 µM.

**Q.** And the TGI [41]?
**A.** Its TGI is 32 µM.

**Q.** And the TGI [42]?
**A.** The TGI was 32.4 µM.

**Q.** What about the TGI [43] of the same compound?
**A.** The TGI was 34.1 µM.

**Q.** What about the TGI [44] of the same compound?
**A.** The TGI was 31.5 µM.

**Q.** And the TGI [45]?
**A.** The TGI was 29.6 µM.

**Q.** And the TGI [46]?
**A.** Its TGI is 52.7 µM.

**Q.** What about the TGI [47] of the same compound?
**A.** The TGI was 31.7 µM.

**Q.** What about the TGI [48] of the same compound?
**A.** The TGI was 28.6 µM.

**Q.** And the TGI [49]?
**A.** The TGI was 32.6 µM.

**Q.** What about the TGI [50] of the same compound?
**A.** The TGI was 33.9 µM.

**Q.** What about the TGI [52] of the same compound?
**A.** Its TGI is 32 µM.

**Q.** And the TGI [53]?
**A.** The TGI was 34.9 µM.

**Q.** And the TGI [54]?
**A.** The TGI was 30 µM.

**Q.** What about the TGI [55] of the same compound?
**A.** The TGI was 30.4 µM.

**Q.** And the TGI [56]?
**A.** Its TGI is 30.1 µM.

**Q.** What about the TGI [57] of the same compound?
**A.** Its TGI is 29 µM.
